Measured values as given in patent US8906952B2, “Indole derivative or pharmaceutically acceptable salt thereof, preparation method thereof, and pharmaceutical composition for preventing or treating metabolic diseases containing same as active ingredient” (Korea Research Institute of Bioscience and Biotechnology, priority 2011, dated 2014).
Where two headings read alike, the source gives them in different places.

Columns and labels:
[1] = system: HuTu80 cells; test: DGAT activity inhibitory effect in HuTu80 cells (triglyceride production from [14C]oleate); assay type: cell-based, human; details: for activity at 10 µM / inhibition at 10 µM / activity at 0.3 µM / activity at 1 µM / activity at 3 µM: Homo sapiens, HuTu80; for activity at 10 µM / activity at 0.3 µM / activity at 1 µM / activity at 3 µM: read-out: Triglyceride Production Rate (% of control)/HuTu80cells; for inhibition at 10 µM / inhibition of biosynthesis of triglycerides (in words): Hutu 80 cells; for inhibition at 10 µM: read-out: inhibitory activity on intracellular biosynthesis of triglycerides
Protocol: HuTu80 cells were seeded in 24-well culture plate by 2×10^5 cells/well. After 24 hr, the medium was exchanged with FBS-free DMEM and concurrently treated with sample and substrate. For the substrate, 0.5 μCi [^14C]oleate was respectively added and allowed to react for 2 hr. After the reaction, the substrate that was either not absorbed into cells or not used for the reaction were washed with PBS two times, and total fat containing triglyceride was extracted by adding 1 ml extraction solvent (n-hexane/2-propanol=3/2, v/v). The extract was concentrated with nitrogen gas. The total fat after elimination of extraction solvent was dissolved in organic solvent (chloroform/methanol=2/1, v/v), spotted on thin layer chromatography (TLC: silica gel 60F254, 0.5 mm, Merck), and developed on developing solvent (n-hexane/diethyl ether/acetic acid=80/20/1, v/v/v). After isolating triglyceride (R∫ value: 0.4) from TLC, exposing to the film with photosensitivity to energy of radioactive elements (imaging plate's Fujifilm, BAS-MS 2040) for 3 hr, and the radioactive dose of triglyceride was measured by conducting image analysis (FLA 7000).
The remaining cells after the extraction were dissolved in 0.3 ml 0.1N NaOH to measure the protein concentration of the cells used for the reaction. The protein quantification was performed with Lowry method-based, protein quantification kit (Bio-Rad). After seeding protein on 96-well, round bottom culture plate, 25 μl of solution containing 1 ml protein analysis reagent (bio-rad, alkaline copper tartrate solution) and 20 μl protein reagent S (bio-rad, surfactant solution) was seeded per well, to induce reaction between copper ion and protein. After reaction with copper ion, 200 μl reagent B (bio-rad, folin reagent) was seeded per well to allow reduction reaction of the folin reagent to occur. For the amount of protein, the light absorptivity at 750 nm was measured based on the blue coloring of the folin reagent as the reduction occurred, and the concentrations of the protein corresponding to respective light absorptivities were quantified by obtaining standard curves with the standard material as bovine serum albumin (BSA). Using the experiment value, which is obtained by dividing the measured radiation dose of the triglyceride by the protein concentration, the above process was repeated three or more times, and the mean value with ±standard error was obtained, as tabulated below.

[2] = target: T1, human DGAT2 (Homo sapiens, UniProt Q96PD7); test: DGAT enzyme inhibition test, hDGAT2 enzyme from sf9 insect cells (DGAT2 selectivity); assay type: biochemical
T1 construct: made in house; host or cells: sf9 insect cells
T1 sequence (Q96PD7 1-388): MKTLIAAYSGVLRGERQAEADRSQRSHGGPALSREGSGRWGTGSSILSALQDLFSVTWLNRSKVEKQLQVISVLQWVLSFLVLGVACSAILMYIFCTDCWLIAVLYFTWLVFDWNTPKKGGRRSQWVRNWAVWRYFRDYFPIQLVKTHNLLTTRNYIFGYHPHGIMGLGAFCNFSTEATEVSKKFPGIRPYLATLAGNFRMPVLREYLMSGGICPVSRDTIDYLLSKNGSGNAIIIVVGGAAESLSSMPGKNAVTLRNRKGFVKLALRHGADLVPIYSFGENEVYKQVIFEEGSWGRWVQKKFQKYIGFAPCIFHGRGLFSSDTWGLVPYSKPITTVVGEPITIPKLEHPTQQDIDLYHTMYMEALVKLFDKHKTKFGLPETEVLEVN
How it was run: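 Microsomes (100–200 μg) from sf9 cells overexpressing the human enzyme were incubated 10 min at 25 °C with compound in 175 mM Tris-HCl pH 8.0, 100 mM MgCl2, BSA, 30 μM [14C]palmitoyl-CoA and 200 μM 1,2-dioleoylglycerol. Extracted [14C]triacylglycerol was counted by LSC. Inhibition was calculated from treated, untreated and no-enzyme counts.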

[3] = target: T2, DGAT-1 (rat liver) (Rattus norvegicus, UniProt Q9ERM3); test: DGAT enzyme inhibition test, rat liver-derived DGAT enzyme; assay type: biochemical; details: rat liver microsomal protein
T2 construct: microsomal protein isolated from rat; from tissue; host or cells: rat liver microsomes
T2 sequence (Q9ERM3 1-498): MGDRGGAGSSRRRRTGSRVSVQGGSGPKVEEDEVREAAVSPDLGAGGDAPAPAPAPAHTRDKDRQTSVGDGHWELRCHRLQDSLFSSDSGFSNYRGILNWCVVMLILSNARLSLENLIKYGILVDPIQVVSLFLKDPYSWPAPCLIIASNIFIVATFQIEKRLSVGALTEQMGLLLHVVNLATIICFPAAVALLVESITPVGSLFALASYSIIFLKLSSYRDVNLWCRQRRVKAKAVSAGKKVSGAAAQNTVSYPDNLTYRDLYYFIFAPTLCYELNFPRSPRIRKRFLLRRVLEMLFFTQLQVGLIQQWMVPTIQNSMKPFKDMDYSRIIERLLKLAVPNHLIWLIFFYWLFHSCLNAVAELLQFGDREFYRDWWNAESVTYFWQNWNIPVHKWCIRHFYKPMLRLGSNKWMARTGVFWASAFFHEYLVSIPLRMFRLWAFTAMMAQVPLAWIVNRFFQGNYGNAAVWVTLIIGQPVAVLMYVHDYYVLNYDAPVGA
Source text: To investigate inhibitory effect of the compounds of Examples 1-33 against DGAT enzyme activity, DGAT enzyme inhibition and DGAT2 selectivity were investigated using zymogen including:
3) rat liver-derived DGAT enzyme.
To be specific, for the purpose of measuring human-derived DGAT enzyme inhibitory activity, using the zymogen, including enzymes derived from insect cell overexpressing human DGAT1 and DGAT2 (‘sf9’), microsomal protein isolated from human duodenal adenocarcinoma (‘Hutu 80’), and microsomal protein isolated from rat, and according to Coleman et al., (Methods Enzymol., 98-103, 1992), and substrate including 1,2-diacylglycerol(Sigma, D0138) and [^14C]palmitoyl-CoA (Amersham, CFA583), the amount of radiation of [^14C]triacylglycerol produced after enzymatic reaction was measured.
To be more specific, to the reaction solution containing 175 mM Tris-HCl (pH 8.0), 20 μl bovine serum albumin (10 mg/ml), 100 mM magnesium chloride, 30 μM [^14C]palmitoyl CoA (0.02 μCi, Amersham) and 200 μM 1,2-dioleoylglycerol, reagent dissolved in dimethylsulfoxide (10.0 μl) was added. After introducing 100 to 200 μg isolated microsomal protein and allowing the same to react at 25° C. for 10 min, the reaction was stopped by adding 1.5 ml stop solution (2-propanol:heptane:water=80:20:2, v:v:v). To isolate the product of the reaction (i.e., [^14C]triacylglycerol), 1 ml heptane and 0.5 ml distilled water were added and then decocted. After taking 1 ml supernatant, 2 ml alkaline ethanol solution (ethanol:0.5 N sodium hydroxide:water=50:10:40, v:v:v) were added and then decocted. After taking 0.65 ml supernatant from the decoction, the amount of radiation was measured with liquid scintillation counter (LSC). The DGAT inhibitory activity was calculated with Mathematical Expression 1 below:
T denotes cpm of experimental group in which the enzymatic reaction solution was treated with the sample,
C denotes cpm of control group in which the enzymatic reaction solution was not treated with the sample, and
B denotes cpm of control group treated with the sample without zymogen.

[4] = 10 μM, enzyme from sf9 cells overexpressing hDGAT2, read-out: hDGAT-2 (sf9) inhibition rate(%)at 10 μM

inhibition at 10 µM [2, 4] [%] | inhibition at 10 µM ([2]; concentration of 10 μM, read-out: hDGAT2 inhibition) [%] | IC50 [3] [nM] | SMILES | activity at 10 µM [1] [%] | inhibition at 10 µM [1] [%] | activity at 0.3 µM [1] [%] | activity at 1 µM [1] [%] | activity at 3 µM [1] [%] | inhibition of biosynthesis of triglycerides (in words) [1]
34.1 |  |  | Cc1cccc(C(=O)NN(C(=O)/C=C/c2cn(C(=O)OC(C)(C)C)c3ccccc23)C(C)C)c1 [Example 47, (E)-tert-butyl 3-(3-(1-isopropyl-2-(3-methylbenzoyl)hydrazinyl)-3-oxoprop-1-enyl)-1H-indole-1-carboxylate] | 13.7 ± 1.5 | 70 to 80 | 56.1 ± 0.1 | 30.2 ± 1.2 | 19 ± 5 | inhibited biosynthesis of triglycerides in a concentration-dependent manner
22.1 |  |  | Cc1ccc(C(=O)NN(C(=O)/C=C/c2cn(C(=O)OC(C)(C)C)c3ccccc23)C(C)C)cc1 [Example 48, (E)-tert-butyl 3-(3-(1-isopropyl-2-(4-methylbenzoyl)hydrazinyl)-3-oxoprop-1-enyl)-1H-indole-1-carboxylate] | 23.9 ± 0.8 |  |  |  |  | 
28 |  |  | CC(C)=CCn1cc(/C=C/C(=O)N(NC(=O)c2ccc(F)cc2)C(C)C)c2ccccc21 [Example 49, (E)-4-fluoro-N′-isopropyl-N′-(3-(1-(3-methylbut-2-enyl)-1H-indol-3-yl)acryloyl)benzohydrazide] | 13.1 ± 0.9 | 70 to 80 | 66.9 ± 3 | 33.4 ± 4.4 | 21.4 ± 0.3 | inhibited biosynthesis of triglycerides in a concentration-dependent manner

Second part, the molecule before the results:

SMILES | inhibition at 10 µM [2, 4] [%] | inhibition at 10 µM ([2]; concentration of 10 μM, read-out: hDGAT2 inhibition) [%] | IC50 [3] [nM] | activity at 10 µM [1] [%] | inhibition at 10 µM [1] [%] | activity at 0.3 µM [1] [%] | activity at 1 µM [1] [%] | activity at 3 µM [1] [%] | inhibition of biosynthesis of triglycerides (in words) [1]
CC(C)=CCn1cc(/C=C/C(=O)N(NC(=O)c2ccccc2)C(C)C)c2ccccc21 [Example 27, (E)-N′-isopropyl-N′-(3-(1-(3-methylbut-2-enyl)-1H-indol-3-yl)acryloyl)benzohydrazide] | 1.2 | < 11 | 500 | 13.1 ± 0.9 | 70 to 80 |  |  |  | 
CC(C)N(NC(=O)c1ccc(F)cc1)C(=O)/C=C/c1cn(C(=O)OC(C)(C)C)c2ccccc12 [Example 44, (E)-tert-butyl 3-(3-(2-(4-fluorobenzoyl)-1-isopropylhydrazinyl)-3-oxoprop-1-enyl)-1H-indole-1-carboxylate] | 28.9 |  |  | 20 ± 1.2 | 70 to 80 | 63.9 ± 4.3 | 43.7 ± 0.3 | 29 ± 0.9 | inhibited biosynthesis of triglycerides in a concentration-dependent manner
CC(C)CCn1cc(/C=C/C(=O)N(NC(=O)c2ccc(F)cc2)C(C)C)c2ccccc21 [Example 46, (E)-4-fluoro-N′-(3-(1-isopentyl-1H-indol-3-yl)acryloyl)-N′-isopropylbenzohydrazide] | 64 |  |  | 20 ± 1.8 | 70 to 80 | 30 ± 0.3 | 30 ± 1.3 | 20 ± 1.2 | inhibited biosynthesis of triglycerides in a concentration-dependent manner
